Assay results published in patent publication US6608086B2, “Dihydropyridines and new uses thereof” (Synaptic Pharmaceutical Corporation, priority 1993, dated 2003).
Read-outs that look alike come from different tables or passages of the source.

Key:
[1] = target: T1, α2B receptor (Homo sapiens, UniProt P18089); assay: Competition binding, [3H]rauwolscine, human α2B receptor
T1 construct: host or cells: LM(tk-) cells, line L-NGC-α2B
T1 sequence (P18089 1-450): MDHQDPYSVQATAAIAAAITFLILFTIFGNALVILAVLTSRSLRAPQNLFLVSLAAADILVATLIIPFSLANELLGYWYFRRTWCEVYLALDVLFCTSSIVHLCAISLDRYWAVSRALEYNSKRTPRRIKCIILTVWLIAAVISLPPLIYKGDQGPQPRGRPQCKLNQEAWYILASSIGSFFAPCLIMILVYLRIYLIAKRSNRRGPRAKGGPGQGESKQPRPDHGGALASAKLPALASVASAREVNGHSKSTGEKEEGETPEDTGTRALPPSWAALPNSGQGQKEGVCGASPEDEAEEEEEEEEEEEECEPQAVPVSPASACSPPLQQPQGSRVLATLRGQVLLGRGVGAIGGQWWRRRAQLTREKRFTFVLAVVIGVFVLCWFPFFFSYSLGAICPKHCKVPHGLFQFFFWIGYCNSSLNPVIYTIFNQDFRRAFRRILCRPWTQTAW
How it was run: (§1)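 Cell lysates from stably transfected LM(tk−) lines are resuspended in 25 mM glycylglycine (pH 7.6 at room temperature), incubated to equilibrium with 0.5 nM [3H]rauwolscine plus competitor, then filtered through GF/B filters; 10 μM phentolamine defines nonspecific binding.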

[2] = target: T2, α1A Human Adrenergic Receptor (Homo sapiens, UniProt P25100); assay: Radioligand binding, [3H]prazosin, cloned human α1A adrenergic receptor
T2 construct: The entire coding region of α1A (1719 bp); expressed in transfected cells
T2 sequence (P25100 1-572): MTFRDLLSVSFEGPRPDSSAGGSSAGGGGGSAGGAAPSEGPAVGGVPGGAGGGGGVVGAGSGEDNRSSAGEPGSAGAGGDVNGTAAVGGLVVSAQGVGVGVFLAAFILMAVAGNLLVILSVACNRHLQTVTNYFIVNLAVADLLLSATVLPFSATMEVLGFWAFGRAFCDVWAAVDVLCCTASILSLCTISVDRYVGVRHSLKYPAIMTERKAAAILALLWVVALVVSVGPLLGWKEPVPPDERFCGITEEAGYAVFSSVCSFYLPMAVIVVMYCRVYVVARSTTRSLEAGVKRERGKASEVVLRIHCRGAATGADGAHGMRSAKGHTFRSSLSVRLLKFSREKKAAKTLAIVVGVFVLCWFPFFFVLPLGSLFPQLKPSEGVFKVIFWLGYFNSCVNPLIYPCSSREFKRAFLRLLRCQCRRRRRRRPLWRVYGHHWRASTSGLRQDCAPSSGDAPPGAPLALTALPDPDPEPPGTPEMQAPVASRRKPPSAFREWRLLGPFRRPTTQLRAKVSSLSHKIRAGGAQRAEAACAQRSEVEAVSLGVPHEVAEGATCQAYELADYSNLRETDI
How it was run: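 Competition binding used membrane preparations of transfected LM(tk−) cells and the α1 antagonist [3H]prazosin at 0.5 nM, incubated 20 min at 37° C in Tris-HCl buffer, pH 7.5.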

[3] = target: T3, α2C receptor (Homo sapiens, UniProt P18825); assay: Competition binding, [3H]rauwolscine, human α2C receptor
T3 construct: host or cells: LM(tk-) cells, line L-α2C
T3 sequence (P18825 1-462): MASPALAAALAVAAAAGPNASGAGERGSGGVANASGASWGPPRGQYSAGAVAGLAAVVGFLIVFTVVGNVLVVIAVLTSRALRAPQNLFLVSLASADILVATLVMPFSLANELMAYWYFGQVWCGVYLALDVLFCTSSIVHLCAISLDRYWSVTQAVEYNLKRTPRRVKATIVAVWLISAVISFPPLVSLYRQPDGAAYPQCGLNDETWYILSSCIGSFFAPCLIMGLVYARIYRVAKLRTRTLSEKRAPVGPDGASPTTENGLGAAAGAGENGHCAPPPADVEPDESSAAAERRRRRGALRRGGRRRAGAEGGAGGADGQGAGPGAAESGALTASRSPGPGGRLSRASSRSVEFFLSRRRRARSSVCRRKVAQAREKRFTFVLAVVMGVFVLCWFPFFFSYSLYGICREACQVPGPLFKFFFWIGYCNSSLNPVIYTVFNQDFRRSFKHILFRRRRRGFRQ
How it was run: as §1

[4] = [3H]rauwolscine, human receptor, LM(tk-) cell lysates, mean, read-out: PKi alpha-2 2b (converted)
[5] = [3H]prazosin, cloned human receptor, LM(tk-) cell membranes, mean, read-out: PKi alpha-1 1a (converted)
[6] = [3H]rauwolscine, human receptor, LM(tk-) cell lysates, mean, read-out: PKi alpha-2 2c (converted)
[7] = PKi alpha-2 2b, [3H]rauwolscine, human α2B receptor, LM(tk-) cells
[8] = PKi alpha-1 1a, [3H]prazosin, cloned human α1A receptor, LM(tk-) cell membranes
[9] = PKi alpha-2 2c, [3H]rauwolscine, human α2C receptor, LM(tk-) cells
[10] = [3H]rauwolscine, human α2B receptor, LM(tk-) cells, read-out: PKi alpha-2 2b (converted)
[11] = [3H]prazosin, cloned human α1A receptor, LM(tk-) cell membranes, read-out: PKi alpha-1 1a (converted)
[12] = [3H]rauwolscine, human α2C receptor, LM(tk-) cells, read-out: PKi alpha-2 2c (converted)

CCC1=C(C(=O)NC)C(c2ccc([N+](=O)[O-])cc2)C(C(=O)NCCCN2CCC(c3ccccc3)(c3ccccc3)CC2)=C(COCCN)N1 (stereo not drawn) [Example 225, 2-((2-Aminoethyl)oxy)methyl-6-ethyl-1,4-dihydro-5-N-methylcarboxamido-4-(4-nitro)phenyl-3-(3-(N-(4,4-diphenylpiperidin-1-yl)propyl))carboxamidopyridine]
Ki ([1]; PKi alpha-2 2b): 2.51 µM | Ki ([2]; PKi alpha-1 1a): 1.62 µM | Ki ([3]; PKi alpha-2 2c): 0.417 µM

CCC1=C(C(=O)NC)C(c2ccc([N+](=O)[O-])cc2)C(C(=O)NCCCN2CCC(C(=O)OC)(c3ccccc3)CC2)=C(COCCN)N1 (stereo not drawn) [Example 229, 2-((2-Aminoethyl)oxy)methyl-6-ethyl-1,4-dihydro-3-(N-(3-(4-methoxycarbonyl-4-phenylpiperidin-1-yl)propyl))carbo xamido-5-N-methylcarboxamido-4-(4-nitro)phenylpyridine]
Ki [1, 4]: 5.37 µM | Ki [2, 5]: 4.17 µM | Ki [3, 6]: 0.891 µM

CCNC(=O)C1=C(CC)NC(COCCN)=C(C(=O)NCCCN2CCC(C(=O)OC)(c3ccccc3)CC2)C1c1ccc([N+](=O)[O-])cc1 (stereo not drawn) [Example 233, 2-((2-Aminoethyl)oxy)methyl-6-ethyl-5-N-ethylcarboxamido-1,4-dihydro-3-(N-(3-(4-methoxycarbonyl-4-phenylpiperidin-1-yl)propyl))carboxamido-4-(4-nitro)phenylpyridine]
Ki ([1]; PKi alpha-2 2b): 8.71 µM | Ki ([2]; PKi alpha-1 1a): 4.07 µM | Ki ([3]; PKi alpha-2 2c): 1.66 µM

CCC1=C(C(N)=O)C(c2ccc([N+](=O)[O-])cc2)C(C(=O)NCCCN2CCC(C(=O)OC)(c3ccccc3)CC2)=C(COCCN)N1 (stereo not drawn) [Example 234, 2-((2-Aminoethyl)oxy)methyl-5-carboxamido-6-ethyl-1,4-dihydro-3-(N-(3-(4-methoxycarbonyl-4-phenylpiperidin-1-yl)propyl)) carboxamido-4-(4-nitro)phenylpyridine]
Ki [1, 4]: 4.9 µM | Ki [2, 5]: 2.75 µM | Ki [3, 6]: 0.832 µM

CCC1=C(C(=O)OC)C(c2ccc([N+](=O)[O-])cc2)C(C(=O)NCCCN2CCC(C(=O)OC)(c3ccccc3)CC2)=C(COCCN)N1 (stereo not drawn) [Example 235, 2-((2-Aminoethyl)oxy)methyl-6-ethyl-1,4-dihydro-5-methoxycarbonyl-3-(N-(3-(4-methoxycarbonyl-4-phenylpiperidin-1-yl)propyl))carboxamido-4-(4-nitro)phenylpyridine]
Ki ([1]; PKi alpha-2 2b): 2.95 µM | Ki ([2]; PKi alpha-1 1a): 0.282 µM | Ki ([3]; PKi alpha-2 2c): 1.02 µM

CC(=O)C1=C(C)NC(COCCN)=C(C(=O)NCCCN2CCC(c3ccccc3)(c3ccccc3)CC2)C1c1ccc([N+](=O)[O-])cc1 (stereo not drawn) [Example 237, 5-Acetyl-2-((2-aminoethyl)oxy)methyl-1,4-dihydro-6-methyl-4-(4-nitro)phenyl 3-(N-(3-(4,4-diphenylpiperidin-1-yl)propyl)) carboxamidopyridine]
Ki ([1]; PKi alpha-2 2b, [3H]rauwolscine, human receptor, LM(tk-) cell lysates, mean): 0.851 µM | Ki ([2]; PKi alpha-1 1a, [3H]prazosin, cloned human receptor, LM(tk-) cell membranes, mean): 0.38 µM | Ki [3, 6]: 0.324 µM

CC(=O)C1=C(C)NC(COCCN)=C(C(=O)NCCCN2CCC(c3ccccc3)(c3ccccc3)CC2)C1c1ccc2c(c1)OCO2 (stereo not drawn) [Example 239, 5-Acetyl-2-((2-aminoethyl)oxy)methyl-1,4-dihydro-6-methyl-4-(3,4-methylenedioxy)phenyl-3-(N-(3-(4,4-dipheylpiperidin-1-yl)propyl))carboxamidopyridine]
Ki [1, 7]: 0.759 µM | Ki [2, 8]: 0.275 µM | Ki [3, 9]: 0.263 µM

CCOC(=O)C1(c2ccccc2)CCN(CCCNC(=O)C2=C(COC)NC(CC)=C(C(=O)O)C2c2ccc([N+](=O)[O-])cc2)CC1 (stereo not drawn) [Example 240, 3-(N-3-(4-Ethoxycarbonyl-4-phenylpiperidin-1-yl)propyl)carboxamido-6-ethyl-1,4-dihydro-2-(methyloxy)methyl-4-(4-nitro)phenylpyridine-5-carboxylic Acid]
Ki ([1]; PKi alpha-2 2b): 6.31 µM | Ki ([2]; PKi alpha-1 1a): 10 µM | Ki ([3]; PKi alpha-2 2c): 11.7 µM

COC(=O)C1(c2ccccc2)CCN(CCCNC(=O)C2=C(COCCCN)NC(C)=C(C(C)=O)C2c2ccc([N+](=O)[O-])cc2)CC1 (stereo not drawn) [Example 241, 5-Acetyl-2-((3-aminopropyl)oxy)methyl-1,4-dihydro-3-(N-(3-(4-methoxycarbonyl-4-phenylpiperidin-1-yl)propyl))carboxamido-6-methyl-4-(4-nitro)phenylpyridine]
Ki ([1]; PKi alpha-2 2b): 1.17 µM | Ki ([2]; PKi alpha-1 1a): 1.45 µM | Ki ([3]; PKi alpha-2 2c): 0.398 µM

CC(=O)C1=C(C)NC(COCCN)=C(C(=O)NCCCN2CCC(c3ccccc3)(c3ccccc3)CC2)C1c1ccc(F)cc1 (stereo not drawn) [Example 242, 5-Acetyl-2-((2-aminoethyl)oxy)methyl-4-(4-fluoro)phenyl-1,4-dihydro-6-methyl-3-(N-(3-(4,4-diphenylpiperidin-1-yl)propyl))carboxamidopyridine]
Ki [1, 7]: 0.933 µM | Ki [2, 8]: 0.224 µM | Ki [3, 9]: 0.257 µM

CCOC(=O)C1(c2ccccc2)CCN(CCCNC(=O)C2=C(COCC(F)(F)F)NC(C)=C(C(N)=O)C2c2ccc([N+](=O)[O-])cc2)CC1 (stereo not drawn) [Example 243, 5-Carboxamido-3-(N-(3-(4-ethoxycarbonyl-4-phenylpiperidin-1yl)propyl))carboxamido-2-((2,2,2-trifluoroethyl)oxy)methyl-1,4dihydro-6-methyl-4-(4-nitro)phenylpyridine]
Ki [1, 10]: 0.977 µM | Ki [2, 11]: 1.51 µM | Ki [3, 12]: 1.07 µM

CCOC(=O)C1(c2ccccc2)CCN(CCCNC(=O)C2=C(COCCN)NC(C)=C(C(C)=O)C2c2ccc3c(c2)OCO3)CC1 (stereo not drawn) [Example 244, 5-Acetyl-2-((2-aminoethyl)oxy)methyl-3-(N-(3-(4-ethoxycarbonyl-4-phenylpiperidin-1-yl)propyl)) carboxamido-1,4-dihydro-6-methyl-4-(3,4-methylenedioxy) phenylpyridine]
Ki [1, 10]: 2.14 µM | Ki [2, 11]: 0.851 µM | Ki [3, 12]: 0.0977 µM

COC(=O)C1(c2ccccc2)CCN(CCCNC(=O)C2=C(COCCN)NC(C)=C(C(C)=O)C2c2ccc(F)cc2)CC1 (stereo not drawn) [Example 245, 5-Acetyl-2-((2-aminoethyl)oxy)methyl-4-(4-fluoro)phenyl-1,4-dihydro-3-(N-3-(4-methoxycarbonyl-4-phenylpiperidin-1-yl)propyl)carboxamido-6-methylpyridine]
Ki [1, 10]: 2.75 µM | Ki [2, 11]: 0.977 µM | Ki [3, 12]: 0.316 µM

CCC1=C(C(=O)OCCO)C(c2ccc([N+](=O)[O-])cc2)C(C(=O)NCCCN2CCC(c3ccccc3)(c3ccccc3)CC2)=C(COC)N1 (stereo not drawn) [Example 246]
Ki [1, 7]: 0.309 µM | Ki [2, 8]: 0.316 µM | Ki [3, 12]: 2.4 µM
